Laboratory results as given in ChEMBL document CHEMBL4219272, “Synthesis and biological evaluation of curcumin derivatives modified with α-amino boronic acid as proteasome inhibitors” (Bioorg Med Chem Lett, 2018).

Assays:
HCT-116 [1] = test: Antiproliferative activity against human HCT116 cells after 72 hrs by MTT assay; format: functional, cell-based; details: HCT-116, 72 h
[2] = biological target: T1, Proteasome Macropain subunit MB1 (Homo sapiens, UniProt P28074); test: Inhibition of chymotrypsin-like activity of 20S proteasome in human K562 cells using Suc-LLVYaminoluciferin as substrate after 2 hrs by luminescence assay; format: cell-based
T1 sequence (P28074 whole entry): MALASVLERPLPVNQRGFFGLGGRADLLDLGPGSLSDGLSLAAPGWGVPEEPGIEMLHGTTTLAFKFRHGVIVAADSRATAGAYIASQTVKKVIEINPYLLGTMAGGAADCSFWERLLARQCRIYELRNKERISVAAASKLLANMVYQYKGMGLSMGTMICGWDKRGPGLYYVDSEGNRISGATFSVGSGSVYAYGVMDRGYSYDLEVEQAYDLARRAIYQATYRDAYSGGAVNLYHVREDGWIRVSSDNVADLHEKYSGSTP

LNCaP = test: Growth inhibition of human LNCAP cells at 5 to 10 uM after 48 hrs by MTT assay relative to control; format: functional
[3] = biological target: T1, Proteasome Macropain subunit MB1; test: Inhibition of chymotrypsin-like activity of 20S proteasome in human PC3 cell extract using Suc-LLVYaminoluciferin as substrate after 2 hrs
[4] = biological target: T1, Proteasome Macropain subunit MB1; test: Inhibition of chymotrypsin-like activity of 20S proteasome in human LNCAP cell extract using Suc-LLVYaminoluciferin as substrate after 2 hrs
[5] = Aqueous solubility of the compound; format: physicochemical; details: buffer
A549 = test: Antiproliferative activity against human A549 cells after 72 hrs by MTT assay; format: functional, cell-based; details: A549, 72 h
MDA-MB-231 = test: Antiproliferative activity against human MDA-MB-231 cells after 72 hrs by MTT assay; format: functional, cell-based; details: MDA-MB-231, 72 h
[6] = Antiproliferative activity against human 95-D cells after 72 hrs by MTT assay; format: functional, cell-based
HCT-116 [7] = test: Antiproliferative activity against human HCT116 cells after 36 hrs by XTT assay; format: functional, cell-based; details: HCT-116, 36 h

Question: Which IC50 (HCT-116 [1]) does the source give for `CC(C)[C@H](NC(=O)N1C/C(=C\c2ccc(F)cc2)C(=O)/C(=C/c2ccc(F)cc2)C1)B1OC(C)(C)C(C)(C)O1` here?
Answer: 908 nM

Question: Which IC50 [2] does the source give for `COc1cc(/C=C/C(=O)CC(=O)/C=C/c2ccc(OC(=O)[C@@H](N)C(C)C)c(OC)c2)ccc1OC(=O)[C@@H](N)C(C)C` here?
Answer: > 5000 nM

Question: And the “growth inhibition (GI)” value (LNCaP)?
Answer: 38 - 71%

Question: And the IC50 [3]?
Answer: 10 µM

Question: And the IC50 [4]?
Answer: 10 µM

Question: For `CCC[C@H](NC(=O)N1C/C(=C\c2ccc(F)cc2)C(=O)/C(=C/c2ccc(F)cc2)C1)B1OC(C)(C)C(C)(C)O1`, which IC50 (HCT-116 [1]) is on record?
Answer: 785 nM

Question: For `O=C1/C(=C/c2ccc(F)cc2)CNC/C1=C\c1ccc(F)cc1`, which solubility [5] is on record?
Answer: Soluble

Question: Which IC50 (HCT-116 [1]) does the source give for `CC1(C)OB([C@@H](NC(=O)N2C/C(=C\c3ccc(F)cc3)C(=O)/C(=C/c3ccc(F)cc3)C2)C2CCCCC2)OC1(C)C` here?
Answer: 903 nM

Question: With `CC(C)C[C@H](NC(=O)[C@H](CC(C)C)NC(=O)N1C/C(=C\c2ccc(F)cc2)C(=O)/C(=C/c2ccc(F)cc2)C1)B1OC(C)(C)C(C)(C)O1` as the compound, how does the IC50 (HCT-116 [1]) read?
Answer: 639 nM

Question: Which IC50 (HCT-116 [1]) does the source give for `CC(C)C[C@H](NC(=O)N1CCN(C(=O)N2C/C(=C\c3ccc(F)cc3)C(=O)/C(=C/c3ccc(F)cc3)C2)CC1)B1OC(C)(C)C(C)(C)O1` here?
Answer: 1630 nM

Question: For `CC(C)C[C@H](NC(=O)[C@H](Cc1ccccc1)NC(=O)N1C/C(=C\c2ccc(F)cc2)C(=O)/C(=C/c2ccc(F)cc2)C1)B(O)O`, which IC50 (HCT-116 [1]) is on record?
Answer: 203 nM

Question: And the IC50 [2]?
Answer: 835 nM

Question: For `CC(C)C[C@H](NC(=O)[C@H](Cc1ccccc1)NC(=O)N1C/C(=C\c2ccc(F)cc2)C(=O)/C(=C/c2ccc(F)cc2)C1)B1OC(C)(C)C(C)(C)O1`, which IC50 (HCT-116 [1]) is on record?
Answer: 201 nM

Question: With `CC(C)C[C@H](NC(=O)CNC(=O)N1C/C(=C\c2ccc(F)cc2)C(=O)/C(=C/c2ccc(F)cc2)C1)B1OC(C)(C)C(C)(C)O1` as the compound, how does the IC50 (HCT-116 [1]) read?
Answer: 375 nM

Question: For `O=C1/C(=C/c2ccc([N+](=O)[O-])cc2)CNC/C1=C\c1ccc([N+](=O)[O-])cc1`, which solubility [5] is on record?
Answer: Insoluble

Question: For `COc1cc(/C=C/C(=O)CC(=O)/C=C/c2ccc(O)c(OC)c2)ccc1O` [CURCUMIN], which IC50 (A549) is on record?
Answer: > 10 µM

Question: And the IC50 (HCT-116 [1])?
Answer: 10900 nM

Question: And the IC50 (MDA-MB-231)?
Answer: > 10 µM

Question: What about the IC50 [6] of the same compound?
Answer: > 10000 nM

Question: What about the IC50 (HCT-116 [7]) of the same compound?
Answer: 50 µM

Question: For `CC1(C)OB([C@H](CCc2ccccc2)NC(=O)N2C/C(=C\c3ccc(F)cc3)C(=O)/C(=C/c3ccc(F)cc3)C2)OC1(C)C`, which IC50 (HCT-116 [1]) is on record?
Answer: 1040 nM

Question: With `CC[C@H](NC(=O)N1C/C(=C\c2ccc(F)cc2)C(=O)/C(=C/c2ccc(F)cc2)C1)B1OC(C)(C)C(C)(C)O1` as the compound, how does the IC50 (HCT-116 [1]) read?
Answer: 876 nM

Question: With `CC(C)(C)[C@H](NC(=O)N1C/C(=C\c2ccc(F)cc2)C(=O)/C(=C/c2ccc(F)cc2)C1)B1OC(C)(C)C(C)(C)O1` as the compound, how does the IC50 (HCT-116 [1]) read?
Answer: 828 nM

Question: Which IC50 (HCT-116 [1]) does the source give for `CC1(C)OB([C@H](Cc2ccccc2)NC(=O)N2C/C(=C\c3ccc(F)cc3)C(=O)/C(=C/c3ccc(F)cc3)C2)OC1(C)C` here?
Answer: 599 nM

Question: What does the source list for `CC(C)C[C@H](NC(=O)N1C/C(=C\c2ccc(F)cc2)C(=O)/C(=C/c2ccc(F)cc2)C1)B1OC(C)(C)C(C)(C)O1`?
Answer: IC50 (A549): 5.05 µM; IC50 (HCT-116 [1]): 824 to 854 nM; IC50 (MDA-MB-231): 3.31 µM; IC50 [6]: 1120 nM

Question: With `CC(C)C[C@H](NC(=O)[C@@H](NC(=O)N1C/C(=C\c2ccc(F)cc2)C(=O)/C(=C/c2ccc(F)cc2)C1)C(C)C)B1OC(C)(C)C(C)(C)O1` as the compound, how does the IC50 (HCT-116 [1]) read?
Answer: 534 nM

Question: For `CC(C)C[C@H](NC(=O)[C@H](Cc1ccc2ccccc2c1)NC(=O)N1C/C(=C\c2ccc(F)cc2)C(=O)/C(=C/c2ccc(F)cc2)C1)B1OC(C)(C)C(C)(C)O1`, which IC50 (HCT-116 [1]) is on record?
Answer: 172 nM
